Consider five compounds from ChEMBL document CHEMBL1121821, “Pyrimidine acyclic nucleosides. 5-Substituted 1-[(2-aminoethoxy)methyl]uracils as candidate antivirals” (J Med Chem, 1981).

Calls of active or inactive are those of the source. The calls are words filed in the database; no cut-off is given here.

In test [1] the test system is Human adenovirus 5. As to the kind of experiment: Compound was tested for antiviral activity against adenovirus type 5; little or no activity. It is filed as functional, organism-based.
The test system of test [2] is Vaccinia virus. As to the kind of experiment: Compound was tested for antiviral activity against vaccinia virus; little or no activity. It is filed as functional, organism-based. The note with it: Orthopoxvirus vaccinia.
The subject of test [3] is L cells. As to the kind of experiment: Cytotoxic activity against Detroit 98 or mouse L cell culture at 10E-4 M concentration; No significant activity. It is filed as functional, cell-based. The note with it: L929.
For test [4], the system named is Human alphaherpesvirus 1. Briefly: Compound was tested for plaque-inhibition against HSV-1 in cell culture at 50 ug per disk; Inactive. It is filed as functional, organism-based.
The test system of test [5] is Thymidine kinase (Human alphaherpesvirus 1). As to the kind of experiment: Compound was tested for affinity against HSV-1 Thymidine kinase; Low activity.
For test [6] the test system is unchanged. As to the kind of experiment: Compound was tested for affinity against HSV-1 thymidine kinase; Low activity.

Regarding `NCCOCn1cc(Cl)c(=O)[nH]c1=O`, the Activity entry is recorded as “Little or no activity” in test [1], “Little or no activity” in test [2] and “Low activity” in test [5]. Also, the Cytotoxicity result in test [3] was “inactive”. In test [4], the outcome was inactive.
Consider `Cc1cn(COCCN)c(=O)[nH]c1=O`, for which the figures for the Activity entry in test [1], in test [2] and in test [6] were “Little or no activity”, “Little or no activity” and “Low activity”, respectively. Besides, the Cytotoxicity result in test [3] is “inactive”. Besides, the result in test [4] was inactive.
Turning to `NCCOCn1ccc(=O)[nH]c1=O`, the Activity entry in test [1] is reported as “Little or no activity”; in test [2], “Little or no activity”; in test [6], “Low activity”. For the same compound, in test [3], the Cytotoxicity entry was “inactive”. Moreover, in test [4], the result was inactive.
As to `NCCOCn1cc(I)c(=O)[nH]c1=O`, the results for the Activity result in test [1], in test [2] and in test [5] were “Little or no activity”, “Little or no activity” and “Low activity”, respectively. In test [3], the Cytotoxicity entry is “inactive”. The outcome in test [4] was inactive.
Regarding `NCCOCn1cc(Br)c(=O)[nH]c1=O`, the Activity entry in test [1] is given as “Little or no activity”; in test [2], “Little or no activity”; in test [6], “Low activity”. In addition, in test [3], the Cytotoxicity entry was “inactive”. In addition, the result in test [4] was inactive.
